What was measured:
[1] = tested on: nNOS-Knockout mice; test: Urination dynamics (urination frequency, urination volume) in nNOS-Knockout mice, observation system for urination behavior; format: in vivo
Description: There has been established no animal models of disease reflecting frequent urination in elderly male subjects. In carefully searching various kinds of information, nNOS-Knockout mice were pointed out to have a possibility as a model of frequent urination (dilatation of urinary bladder, hyperplasia of smooth muscle, lack of relaxation responses, see Non-patent Document 9 for its creation) in May, 1997 (Non-patent Document 10), but have not been studied as a therapeutic model. nNOS-Knockout mice have now been investigated for their possibility as a model of frequent urination by using an instrument (an observation system for urination behavior, Muromachi Kikai Co., Ltd., Japan) to determine urination dynamics (urination volume and urination frequency) of the mice. […]
Nicorandil was given to nNOS-Knockout mice (8-13 months of age) by forced oral administration at 6 mg/kg/day for 7 days using a sound for oral administration. […]
The daily urination frequency was measured with an observation system for urination behavior (Muromachi Kikai Co., Ltd., Japan). […]
Furthermore, with the aim of clarifying the contribution of the nicorandil's nitrate-like action, pinacidil (SIGMA) known as a pure and potent KATP channel opener was also used for comparison of the urination frequency (FIG. 2).

[2] = tested on: urethral obstruction rats; test: Urination frequency after water loading in rat urethral obstruction model; format: in vivo; settings: over 210 minutes
Description: As described above, there are many causes that induce frequent urination, and dysuria-induced frequent urination is also known. A rat animal model of urethral obstruction has been reported as a model for efficacy verification of many ameliorating agents for frequent urination (Non-patent Documents 17 and 18). In this example, a midline incision was made in the lower quadrant of each rat (9 weeks of age) under pentobarbital anesthesia, and the proximal urethra was ligatured together with a stainless rod (φ1 mm) by using a 3-0 silk suture, followed by pulling out the rod to create a urethral obstruction model. At 45 days after urethral obstruction, the rats were subjected to water loading (30 ml/kg, po; “water loading” as used herein refers to forced oral administration of distilled water using a sound) and observed for their urination frequency over 210 minutes, such that animals having a urination frequency greater than that of normal animals (5 times) were selected as animals with frequent urination. These animals were administered orally with nicorandil (1 mg/kg) or KRN2391 (1 mg/kg) (dissolved in distilled water for water loading) and then observed for their urination frequency over 210 minutes (n=5 for each group).

[3] = tested on: non-anesthetized conscious rats; test: Hypotensive effect (blood pressure) in non-anesthetized conscious rats after oral administration; format: in vivo, rat; settings: compared at a dosage causing a 20 mmHg reduction in blood pressure, FIG. 4
Description: In view of this fact, to study a hypotensive effect regarded as a side effect in the amelioration of frequent urination, both drugs were compared for their effect on blood pressure when orally administrated to non-anesthetized conscious rats (“non-anesthetized conscious rat” as used herein refers to an animal pre-treated such that a catheter for blood pressure measurement is inserted and placed in its femoral artery under anesthesia to ensure blood pressure monitoring, which animal is used on the following day after the anesthesia wears off). […] The measurement of blood pressure was performed as follows: the catheter for blood pressure measurement was connected to a blood pressure transducer (Nihon Kohden Corporation, Japan) and input into a polygraph (Nihon Kohden Corporation, Japan).

[4] = tested on: urethral obstruction rats; settings: rat, in vivo, po, 1 mg/kg
Procedure: “Urinary retention” as used herein refers to a state where the urination volume is 3 hr=0.
Rats at 45 days after urethral obstruction (φ1 mm, urethra was obstructed in rats at 9 weeks of age) were administered orally with nicorandil (3 mg/kg) or KRN2391 (1 mg/kg), subjected to water loading (30 ml/kg, po) and then monitored for their urination volume over 180 minutes (n=10 for each group).

[5] = tested on: nNOS-Knockout mice; test: Daily urination volume in nNOS-Knockout mice (oliguria); format: in vivo; settings: nNOS-Knockout mice 12-16 weeks, 1 mg/kg, 24 hours after administration, p<0.05
[6] = tested on: KATP channel; settings: report, Non-patent Document 7; cited from earlier work
[7] = Enarmon-depot 3.6 mg/kg/day, sc, 7 days, n=5, vs control group (n=8), p<0.05

CCCCCCC(=O)O[C@H]1CC[C@H]2[C@@H]3CCC4=CC(=O)CC[C@]4(C)[C@H]3CC[C@]12C [testosterone, testosterone enanthate]
daily urination volume ([1]; Enarmon-depot 3.6 mg/kg/day, sc, 7 days, n=5, vs control group (n=8)): no change | single urination volume [1, 7]: significant increase | urination frequency [1, 7]: significant decrease

CC(N/C(=N\C#N)Nc1ccncc1)C(C)(C)C (stereo not shown) [pinacidil]
urination frequency ([1]; oral 0.3 mg/kg (dose strongly affecting the mouse cardiovascular system), FIG. 2): no significant decrease

N#CNC(=NCCO[N+](=O)[O-])c1cccnc1 [KRN2391]
effect on daily urination frequency (ameliorating effect on urination) ([1]; 1 mg/kg, p<0.05, FIG. 2): significant ameliorating effect | reduction of urination frequency ([2]; 1 mg/kg po, vs before administration): 34.3% | urination frequency after administration ([2]; 45 days after obstruction, 1 mg/kg po with water loading 30 ml/kg, n=5, p<0.05): 2.4±0.8 times/210 minutes | amount producing hypotensive effect, smaller than nicorandil [3]: 10 fold | number of animals without urination [4]: 5 animals | urinary retention [4]: a state of urinary retention was observed | urination volume [4]: 0.50 ± 0.30 mL | effect on daily urination volume [5]: significant inhibitory effect | hypotensive effect due to KATP channel opening action, stronger than that of nicorandil [6]: 25 fold

Reference: US20080033018A1, “Therapeutic Agents For Overactive Bladder” (Chugai Seiyaku Kabushiki Kaisha, priority 2004, published 2008)
